In this assay the test system is 624824-186-R-J3-PDC multicell spheroids, viability. Put plainly: Anticancer human tumor 624824-186-R-J3-PDC patient-derived colon adenocarcinoma cell line growth inhibition [PI3K]. As to conditions: for viability, T/C: stronger effect = lower value. The method, boiled down:
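Combination activity was assessed by viability in multicellular tumor spheroids carrying HUVEC and MSC components. Agents were tested with PI3K inhibitors from a Cmax-based top dose (or 10 microM) downward in half-log increments.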

Setting [1] is: curve of first compound, second compound 0.0316 µM.
[2] abbreviates: curve of first compound, second compound 0.1 µM.
The mark [3] stands for this setting: curve of first compound, second compound 0.316 µM.
Where [4] appears, read: curve of first compound, second compound 1 µM.
Setting [5] is: second compound 0.0316 µM, first compound 0.0316 µM.
The mark [6] stands for this setting: second compound 0.0316 µM, first compound 0.1 µM.
Where [7] appears, read: second compound 0.1 µM, first compound 0.0316 µM.
[8] abbreviates: second compound 0.1 µM, first compound 0.1 µM.
[9] abbreviates: second compound 0.316 µM, first compound 0.0316 µM.
The mark [10] stands for this setting: second compound 0.316 µM, first compound 0.1 µM.
The mark [11] stands for this setting: second compound 1 µM, first compound 0.0316 µM.
[12] abbreviates: second compound 1 µM, first compound 0.1 µM.

Molecules are shown by their SMILES. A value given as a limit tells only on which side of the number the result lay.
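Note: spheroids exposed to agents for seven days before luminescence read.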
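Throughout, for viability, T/C: luminescent signal used as a stand-in for spheroid viability; percent viability relative to DMSO vehicle control wells taken as 100%.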

On to `CC(=O)c1c(C)c2cnc(Nc3ccc(N4CCNCC4)cn3)nc2n(C2CCCC2)c1=O` + Cc1nc(NC(=O)N2CCCC2C(N)=O)sc1-c1ccnc(C(C)(C)C(F)(F)F)c1, for which the IC50 is, setting by setting: under setting [1], above 0.1 µM; under setting [2], above 0.1 µM; under setting [3], above 0.1 µM; under setting [4], above 0.1 µM; (curve of first compound, second compound 3.16 µM) above 0.1 µM; (curve of first compound, second compound 10 µM) 0.0639 µM. In addition, the viability, T/C was 109% (second compound 0.0316 µM, first compound 0.000316 µM); 102% (second compound 0.0316 µM, first compound 0.001 µM); 119% (second compound 0.0316 µM, first compound 0.00316 µM); 99.5% (second compound 0.0316 µM, first compound 0.01 µM); 112% under setting [5]; 101% under setting [6]. Further, the viability, T/C is 97.3% (second compound 0.1 µM, first compound 0.000316 µM); 104% (second compound 0.1 µM, first compound 0.001 µM); 113% (second compound 0.1 µM, first compound 0.00316 µM); 103% (second compound 0.1 µM, first compound 0.01 µM); 107% under setting [7]; 106% under setting [8]. Besides, the viability, T/C (second compound 0.316 µM, first compound 0.000316 µM) is 112%; the viability, T/C (second compound 0.316 µM, first compound 0.001 µM) was 107%; the viability, T/C (second compound 0.316 µM, first compound 0.00316 µM) is 114%; the viability, T/C (second compound 0.316 µM, first compound 0.01 µM) was 110%; the viability, T/C under setting [9] was 104%; the viability, T/C under setting [10] was 109%. Further, the viability, T/C by setting is: (second compound 1 µM, first compound 0.000316 µM) 106%; (second compound 1 µM, first compound 0.001 µM) 99.1%; (second compound 1 µM, first compound 0.00316 µM) 109%; (second compound 1 µM, first compound 0.01 µM) 94.8%; under setting [11], 101%; under setting [12], 93.4%. Moreover, the viability, T/C (second compound 3.16 µM, first compound 0.000316 µM) was 85.7%; the viability, T/C (second compound 3.16 µM, first compound 0.001 µM) is 95.7%; the viability, T/C (second compound 3.16 µM, first compound 0.00316 µM) is 97.8%; the viability, T/C (second compound 3.16 µM, first compound 0.01 µM) is 85.1%; the viability, T/C (second compound 3.16 µM, first compound 0.0316 µM) was 85.3%; the viability, T/C (second compound 3.16 µM, first compound 0.1 µM) was 62.9%. Also, the viability, T/C (second compound 10 µM, first compound 0.000316 µM) is 71.8%; the viability, T/C (second compound 10 µM, first compound 0.001 µM) is 73.1%; the viability, T/C (second compound 10 µM, first compound 0.00316 µM) is 76%; the viability, T/C (second compound 10 µM, first compound 0.01 µM) is 64.6%; the viability, T/C (second compound 10 µM, first compound 0.0316 µM) is 59.7%; the viability, T/C (second compound 10 µM, first compound 0.1 µM) is 43.9%.
For the molecule `Cn1nccc1Nc1nccc(-c2ccn(C(CO)c3ccc(Cl)c(F)c3)c(=O)c2)n1` (centres undefined), the viability, T/C (compound 0.0316 µM) is 102% [middle of 4 runs]; the viability, T/C (compound 0.1 µM) is 95.1% [middle of 4 runs]; the viability, T/C (compound 0.316 µM) was 95.9% [middle of 4 runs]; the viability, T/C (compound 1 µM) was 80.8% [middle of 4 runs]; the viability, T/C (compound 3.16 µM) was 69.3% [middle of 4 runs]; the viability, T/C (compound 10 µM) is 60.9% [middle of 4 runs]. Also, the IC50 (curve of compound) was above 10 µM.
For `CNC(=O)c1ccc(N2C(=S)N(c3ccc(C#N)c(C(F)(F)F)c3)C(=O)C2(C)C)cc1F`, the viability, T/C runs as follows: (compound 0.0316 µM) 103% [middle of 4 runs]; (compound 0.1 µM) 102% [middle of 4 runs]; (compound 0.316 µM) 107% [middle of 4 runs]; (compound 1 µM) 104% [middle of 4 runs]; (compound 3.16 µM) 106% [middle of 4 runs]; (compound 10 µM) 104% [middle of 4 runs]. For the same molecule, under “curve of compound”, the IC50 was above 10 µM.
Take `CC(Nc1ncnc2nc[nH]c12)c1cc2cccc(Cl)c2c(=O)n1-c1ccccc1` (centres undefined): the viability, T/C is, setting by setting: (compound 0.0316 µM) 103% [middle of 8 runs]; (compound 0.316 µM) 106% [middle of 8 runs]; (compound 1 µM) 108% [middle of 8 runs]; (compound 3.16 µM) 106% [middle of 8 runs]; (compound 10 µM) 94.7% [middle of 8 runs]. The IC50 (compound alone, run of 04/25/2023) is above 10 µM.
Regarding `CC(Cn1ccc(-c2ccc(C#N)c(Cl)c2)n1)NC(=O)c1cc(C(C)O)[nH]n1` (centres undefined) + CC(Nc1ccc2c(c1)OCCn1cc(N3C(=O)OCC3C(F)F)nc1-2)C(N)=O, the IC50 is above 10 µM (curve of first compound, second compound 0.00316 µM); above 10 µM (curve of first compound, second compound 0.01 µM); above 10 µM under setting [1]; above 10 µM under setting [2]; above 10 µM under setting [3]; above 10 µM under setting [4]. Further, the viability, T/C (second compound 0.00316 µM, first compound 0.0316 µM) is 98.3%; the viability, T/C (second compound 0.00316 µM, first compound 0.1 µM) was 98.6%; the viability, T/C (second compound 0.00316 µM, first compound 0.316 µM) is 94.7%; the viability, T/C (second compound 0.00316 µM, first compound 1 µM) was 92.7%; the viability, T/C (second compound 0.00316 µM, first compound 3.16 µM) is 94.6%; the viability, T/C (second compound 0.00316 µM, first compound 10 µM) was 103%. The viability, T/C is, setting by setting: (second compound 0.01 µM, first compound 0.0316 µM) 93%; (second compound 0.01 µM, first compound 0.1 µM) 100%; (second compound 0.01 µM, first compound 0.316 µM) 115%; (second compound 0.01 µM, first compound 1 µM) 101%; (second compound 0.01 µM, first compound 3.16 µM) 103%; (second compound 0.01 µM, first compound 10 µM) 95.5%. Further, the viability, T/C reads like this: under setting [5], 110%; under setting [6], 96.4%; (second compound 0.0316 µM, first compound 0.316 µM) 97.4%; (second compound 0.0316 µM, first compound 1 µM) 107%; (second compound 0.0316 µM, first compound 3.16 µM) 112%; (second compound 0.0316 µM, first compound 10 µM) 99%. Also, the viability, T/C is, setting by setting: under setting [7], 101%; under setting [8], 97.5%; (second compound 0.1 µM, first compound 0.316 µM) 93.3%; (second compound 0.1 µM, first compound 1 µM) 102%; (second compound 0.1 µM, first compound 3.16 µM) 102%; (second compound 0.1 µM, first compound 10 µM) 91%. Further, the viability, T/C reads like this: under setting [9], 94.2%; under setting [10], 96%; (second compound 0.316 µM, first compound 0.316 µM) 101%; (second compound 0.316 µM, first compound 1 µM) 91.4%; (second compound 0.316 µM, first compound 3.16 µM) 91.5%; (second compound 0.316 µM, first compound 10 µM) 77.8%. Further, the viability, T/C was 87.6% under setting [11]; 88.2% under setting [12]; 83.8% (second compound 1 µM, first compound 0.316 µM); 88.7% (second compound 1 µM, first compound 1 µM); 81.9% (second compound 1 µM, first compound 3.16 µM); 79.1% (second compound 1 µM, first compound 10 µM).

(Values after PubChem BioAssay AID1963977 (Molecular Pharmacology Branch, DTP, NCI, 2024).)
